# Data taken from patent US11491147B2, “Combination drug therapy reduces PARP-1 related DNA repair and increases the efficacy of genotoxic agents” (Indiana University Research and Technology Corporation, priority 2016, dated 2022).
# Columns and labels:
# [1] = tested on: MDA-MB-468 cells; assay: Apoptosis and cell cycle distribution, MDA-MB-468 cells; type: cell-based, human
# Protocol: (§1) Cancer cells were plated in 6-well plates at a density of 2×10^5 cells/well, cultured overnight. […] Cells were washed with PBS and fixed ice cold 70% ethanol overnight. After centrifugation, pellets were resuspended in PBS, stained with propidium iodide solution for 30 min in the dark and analyzed by flow cytometry.
# [2] = tested on: γ-H2AX in MDA-MB-468 cells; assay: Western blot of γ-H2AX, MDA-MB-468 cells; type: cell-based, human; conditions: lansoprazole alone
# Protocol: (§2) Furthermore, the lansoprazole-induced γ-H2AX increase in MCF7 cells was ablated by over-expressing ectopic FASN (FIG. 18G).
# (§3) Cells were harvest and then lysed in TNN buffer with 1 mM DTT, 1 mM PMSF and 0.1% SDS for 30 min at 4° C. with occasional agitation. The cells were sonicated briefly and total proteins were harvested after centrifugation of the lysate at 16,000 g for 15 minutes at to remove cell debris. The protein concentration of cell lysates was determined using a Bio-Rad protein assay kit. Total cell lysates were then separated by SDS-PAGE, transferred to a polyvinylidene fluoride membrane, and probed using antibodies against fatty acid synthase (610963, BD biosciences), PARP-1 (46D11, CST), γ-H2AX (05-636, Millipore), and (3-Actin (A2228, Sigma). The blot was then probed with horseradish peroxidase-conjugated secondary antibodies (Sigma) and signals were captured on X-ray films following developing with Amersham ECL Western Blotting Detection Reagent (RPN2106, GE).
# [3] = tested on: MCF7 cells; assay: Apoptosis and cell cycle distribution, MCF7 cells; type: cell-based, human
# Protocol: as §1
# [4] = tested on: NHEJ activity in MDA-MB-468 cells; assay: Host cell reactivation NHEJ assay, MDA-MB-468 cells; type: cell-based, human; conditions: 10 μM, three days
# Protocol: (§4) The host cell reactivation NHEJ assay was carried out as previously described (Wu et al., 2017) with minor modifications. Briefly, 1×10^4 cells were seeded in 24-well plates, cultured overnight and then treated with 10 μM Lansoprzole or vehicle every day for three days before transfection with either linearized or intact pGL3-luc firefly luciferase plasmids (400 ng) using Lipofectamine 2000 (Invitrogen). pGL3-luc plasmid was linearized by HindIII digestion, and linearization was verified by DNA agarose gel electrophoresis before transfection. pRL-TK (Promega) plasmid which encodes renilla luciferase was co-transfected (400 ng) as a control for transfection efficiency. 8 hours after transfection, cells were harvested and assayed for luciferase activity with Dual Luciferase Assay (Promega) on a luminometer. Firefly luciferase signal were normalized to renilla luciferase signal in each group. Overall NHEJ activity was calculated by firefly luciferase activity from cells transfected with linearized plasmid relative to that of the intact plasmid.
# [5] = tested on: PARP1 expression; assay: Western blot of PARP1 expression in 4 breast cancer cell lines; type: cell-based, human; conditions: lansoprazole at different concentrations, all 4 cell lines
# Excerpt: FIG. 18. Role of FASN in mediating PPI effect. A, Western blot analysis of FASN and PARP1 expression in MCF7 cells with ectopic FASN over-expression and in drug resistant MCF7/AdVp3000 (M3K) cells with FASN knockdown. […] E, Rescue of lansoprazole-induced reduction in NHEJ activity by ectopic FASN over-expression. […] G, Ablation of lansoprazole-induced γH2AX level increase by ectopic FASN over-expression as determined using Western blot analysis. Actin was used as loading control for all Western blot analyses.
# FASN can regulate NHEJ repair activity by regulating PARP1 expression (Wu et al., 2017).
# Cells were harvest and then lysed in TNN buffer with 1 mM DTT, 1 mM PMSF and 0.1% SDS for 30 min at 4° C. with occasional agitation. The cells were sonicated briefly and total proteins were harvested after centrifugation of the lysate at 16,000 g for 15 minutes at to remove cell debris. The protein concentration of cell lysates was determined using a Bio-Rad protein assay kit. […]
# [6] = tested on: MDA-MB-468 cells; assay: Colony formation survival assay, MDA-MB-468 cells; type: cell-based, human; conditions: pre-treated with 10 μM lansoprazole for 3 days
# Protocol: (§5) For each potency ratio, combination index of three effective concentrations at IC30, IC50, and IC70 were calculated for synergistic effects using Prism 7.0.
# (§6) Cells were then harvested and re-plated in 6-well plates at a density of 200 cells/well followed by IR treatment at different doses and colony formation assay or collection of cells for Western blot analysis. Concentration-response curves and IC50 values were calculated using Prism 7.0 (GraphPad, La Jolla, USA).
# [7] = tested on: MCF7 cells; assay: Colony formation survival assay, MCF7 cells; type: cell-based, human; conditions: MCF7 cells; for IC50: Homo sapiens, single agent, colony formation, read-out: IC50, cell survival
# Protocol: FIG. 15. […] B. Combination index. Combination index (CI) was derived using the data shown in A and the formula: […]
# as §5, §6
# [8] = tested on: breast cancer patients; assay: Retrospective survival analysis of electronic medical records of breast cancer patients; type: in vivo, human
# Protocol: FIG. 16. Retrospective survival analysis of breast cancer patients with or without use of proton pump inhibitors (PPIs). De-identified electronic medical records of 6,752 breast cancer patients were retrieved from the database of Indiana Network for Patient Care (INPC) and subjected to Kaplan-Meier survival analysis in association with PPI usage in all patients (A) or in triple negative breast cancer patient subgroup (B). The p-value and hazard ratio (HR) were calculated from Cox proportional hazard models, which were adjusted for age, tumor stage, and time of first diagnosis.
# Because PPIs are widely used for treatment of a variety of acid-related digestive disorders, many cancer patients may use PPIs without the knowledge that the combination of PPIs with their chemotherapy may have helped them. To this end, a retrospective association analysis was conducted using de-identified electronic medical records (EMR) of 6,752 breast cancer patients from Indiana Network for Patient Care (INPC). The average age at diagnosis is 58.9 years (range 19-102) and average age at death or last visit is 61.5 (range 21-104). Of this cohort, 534 patients took one or more PPIs after diagnosis as recorded in the EMR. There are 488 triple negative breast cancer (TNBC) patients, among them 35 used PPIs. Using the Cox proportional hazard regression model, the patient overall survival was analyzed against PPI usage. […] The protective effect of PPIs on patient survival was adjusted for age, tumor stage, and time of first diagnosis.
# The patient database contains three domains of electronic medical records (EMR) of 6,752 de-identified breast cancer patients from Indiana Network for Patient Care (INPC). The first domain contains patient characteristics as shown in Supplemental Table 51. The second domain contains medical test results including body weight, blood tests, and office visit information. The third domain contains prescription information for each patient. The use of this database has been approved by IRB at Indiana University for this study.
# The first task is to remove null and duplicated values and to resolve contradicting records. For patients that have contradicting records, different rules for different conflicts were followed. For conflicts on the first visit or diagnosis time, the earlier record at younger age were used as the first diagnosis and considered the later one as system update. For all other information including diagnosis information such as cancer subtype, the latest record was used as it is thought to be more accurate.
# Next, the plain text information from the first domain of the database including but not limited to ER, PR, and HER2 test results, treatment plans, and therapy types were digitized. The record that is not clear was marked as unknown. For example, the HER2 status with a 2+ score, a borderline score, from IHC staining was usually confirmed with FISH test. Patients with a 2+ score but without a FISH test result were considered unknown in this study.
# Further, the days of patient survival from data in the first domain were validated using prescription history of the same patient in the third domain of the database. When there is a conflict, the last day of office visit or prescription refill, whichever is later, was recorded as the last day of visit or death. Moreover, patients who took PPIs prior to their diagnosis of breast cancer but stopped taking them after diagnosis were considered non-PPI users in this study.
# [9] = tested on: MDA-MB-231 cells; assay: Colony formation survival assay, MDA-MB-231 cells; type: cell-based; conditions: Homo sapiens, single agent, read-out: IC50, cell survival
# [10] = tested on: γ-H2AX in MCF7 cells; assay: Western blot of γ-H2AX, MCF7 cells; type: cell-based, human; conditions: lansoprazole alone
# Protocol: as §2, §3
# [11] = tested on: NHEJ activity in MCF7 cells; assay: Host cell reactivation NHEJ assay, MCF7 cells; type: cell-based, human; conditions: 10 μM, three days
# Protocol: as §4
# [12] = tested on: MCF7, T47D, MDA-MB-231, and MDA-MB-468 cells; assay: Colony formation survival assay, four breast cancer cell lines
# Protocol: Next, tested whether PPIs inhibit survival of breast cancer cell lines with different levels of FASN expression (FIG. 17B) using colony formation assay.
# Briefly, breast cancer cells were seeded in six-well plates at 200 cells/well and cultured overnight followed by treatments without or with PPIs at different concentrations for 14 days. The colonies formed were then washed with PBS, fixed in 100% methanol and stained with 0.5% crystal violet in 25% methanol. The stained colonies were counted manually and concentration-response curves with IC50 were generated using Prism 7.0 (GraphPad, La Jolla, USA).
# [13] = tested on: PARylated histone-H3; assay: IR-induced histone-H3 PARylation, immunoprecipitation and Western blot; type: cell-based, human; conditions: pre-treatment with 0.5 μM olaparib, 5 Gy IR, P/FASN and P/Vec cells
# Protocol: FIG. 5. PARP-1 mediates FASN-associated DNA repair and genotoxic treatment resistance. A-B, Effect of FASN on PARP-1 expression as determined by Western blot (A) and real-time RT-PCR (B) in stable FASN-over-expressing and -knockdown cells. C, Effect of FASN on IR-induced histone-H3 PARylation. Cells were pre-treated without or with 0.5 μM olaparib followed by treatment with or without IR and harvested at different times following IR for lysate preparation, immunoprecipitation of histone-H3 in the presence of 100 μM PARG inhibitor, gallotannin, and Western blot analyses of PARylated and total histone H3. D, Effect of PARP-1 knockdown on FASN-induced NHEJ up-regulation. FASN-over-expressing (P/FASN) and the control (P/Vec) cells were transiently transected with PARP-1 or scrambled control siRNA followed by Western blot analysis of PARP-1 (left panel) and NHEJ activity assay (right panel) (n=3, *p<0.05; **p<0.01). E, Effect of PARP-1 inhibition on survival. M/FASN cells were treated with 1 mM 3-ABA, 0.5 μM olaparib, or their vehicle control for 48 hours followed by MTT assay. F, Effect of PARP-1 inhibition on doxorubicin resistance. M/FASN cells were pre-treated for 6 hours by 1 mM 3-ABA, 0.5 μM olaparib, or transfected with control or PARP-1 siRNA followed by tested doxorubicin resistance using MTT survival assay. (n=3-4, *p<0.05, **p<0.01). […]
# [14] = tested on: M/FASN cells; assay: MTT survival assay, M/FASN cells; type: cell-based, human
# Protocol: FIG. 5. PARP-1 mediates FASN-associated DNA repair and genotoxic treatment resistance. A-B, Effect of FASN on PARP-1 expression as determined by Western blot (A) and real-time RT-PCR (B) in stable FASN-over-expressing and -knockdown cells. C, Effect of FASN on IR-induced histone-H3 PARylation. Cells were pre-treated without or with 0.5 μM olaparib followed by treatment with or without IR and harvested at different times following IR for lysate preparation, immunoprecipitation of histone-H3 in the presence of 100 μM PARG inhibitor, gallotannin, and Western blot analyses of PARylated and total histone H3. D, Effect of PARP-1 knockdown on FASN-induced NHEJ up-regulation. FASN-over-expressing (P/FASN) and the control (P/Vec) cells were transiently transected with PARP-1 or scrambled control siRNA followed by Western blot analysis of PARP-1 (left panel) and NHEJ activity assay (right panel) (n=3, *p<0.05; **p<0.01). E, Effect of PARP-1 inhibition on survival. M/FASN cells were treated with 1 mM 3-ABA, 0.5 μM olaparib, or their vehicle control for 48 hours followed by MTT assay. F, Effect of PARP-1 inhibition on doxorubicin resistance. M/FASN cells were pre-treated for 6 hours by 1 mM 3-ABA, 0.5 μM olaparib, or transfected with control or PARP-1 siRNA followed by tested doxorubicin resistance using MTT survival assay. (n=3-4, *p<0.05, **p<0.01).
# To determine if FASN enhancement of PARP-1 likely mediates FASN function in cellular resistance to DNA damages, a survival assay of […] cells following doxorubicin treatment in the absence or presence of PARP-1 inhibitors, 3-ABA (3-aminobenzamide) or olaparib was carried out. Now referring to FIG. 5E, either 1 mM 3-ABA or 0.5 μM olaparib alone had no effect on M/FASN cell survival.
# MTT survival assay was performed as previously described (see e.g., Yang Y, Chen Q, & Zhang J T (2002) Structural and functional consequences of mutating cysteine residues in the amino terminus of human multidrug resistance-associated protein 1. J. Biol. Chem. 277(46):44268-44277). Briefly, cells in 96-well plate were cultured for 24 hours and treated with various concentrations of doxorubicin, bleomycin, cisplatin or H2O2 continuously for 3 days followed by addition of thiazolyl blue tetrazolium bromide (MTT) to a final concentration of 0.5 mg/mL and incubation at 37° C. for 4 hours. Medium was then removed and formazan was solubilized in dimethyl sulfoxide and the OD570 was measured by a Synergy H1 hybrid reader (BioTek, Winooski, Vt.). IC50's were obtained from the fitted curves generated by GraphPad Prism 5.0 program (GraphPad Software, Inc.). Relative resistance factor (RRF) is calculated using the formula RRF=IC50 (test)/IC50 (control) with control normalized as 1. […]
compound,measurement,setting,value
Cc1c(OCC(F)(F)F)ccnc1C[S+]([O-])c1nc2ccccc2[nH]1 (stereo not drawn) [lansoprazole],apoptosis,[1],dose-dependently induced apoptosis
same,cell cycle distribution,[1],S phase
same,level of γ-H2AX,[2],increased the level of γ-H2AX in a dose-dependent manner
same,apoptosis,[3],dose-dependently induced apoptosis
same,cell cycle distribution,[3],cell cycle arrest at G1
same,NHEJ activity,[4],significantly reduced
same,PARP1 expression,[5],dose-dependently reduced
same,sensitization to IR treatment,[6],sensitized
same,IC50,[7],1300 ± 700 nM
same,sensitization to IR treatment,[7]; pre-treated with 10 μM lansoprazole for 3 days,sensitized
same,"HR (CoxPH ratio), overall survival","[8]; pairwise versus Omeprazole users, all patients",0.68
same,"HR (CoxPH ratio), overall survival","[8]; single-PPI users versus No PPI, all breast cancer patients",0.17
same,"HR, overall survival","[8]; versus No PPI, African American (AA) patients",1.09*10^−7
same,"HR, overall survival","[8]; versus No PPI, Caucasian (CA) patients",0.18
same,"HR, overall survival","[8]; versus Omeprazole, AA patients",3.99*10^−9
same,"HR, overall survival","[8]; versus Omeprazole, CA patients",0.81
same,IC50,[9],21.4 ± 4.1 µM
same,level of γ-H2AX,[10],increased the level of γ-H2AX in a dose-dependent manner
same,NHEJ activity,[11],significantly reduced
same,"inhibition of breast cancer cell survival, comparison among PPIs",[12],the most effective one for all 4 cell lines
O=C(c1cc(Cc2n[nH]c(=O)c3ccccc23)ccc1F)N1CCN(C(=O)C2CC2)CC1 [olaparib],IR-induced PARylation of histone-H3,[13],inhibited IR-induced PARylation
same,effect on M/FASN cell survival,"[14]; 1 mM 3-ABA or 0.5 μM olaparib alone, 48 hours",no effect
same,doxorubicin resistance level of M/FASN cells,[14]; pre-treated for 6 hours by 1 mM 3-ABA or 0.5 μM olaparib,significantly reduced
same,IC50,[7],1000 nM
